Data published in patent US20110319392A1, “Thiazole Sulfonamide And Oxazole Sulfonamide Kinase Inhibitors” (priority 2009, published 2011).

System: BT474 tumor cells
Experiment: Cell growth inhibition assay (CellTiter-Glo), BT474
Type: cell-based, Human
Settings: Homo sapiens, BT-474, 72 h, 3 days incubation

SMILES	IC50 [nM]
CCc1nc(-c2cccc(NS(=O)(=O)c3ccccc3)c2)c(-c2ccnc(Nc3ccc(N4CCN(C(C)=O)CC4)nc3)n2)s1 [Example 3, N-{3-[5-(2-{[6-(4-Acetyl-1-piperazinyl)-3-pyridinyl]amino}-4-pyrimidinyl)-2-ethyl-1,3-thiazol-4-yl]phenyl}benzenesulfonamide]	> 1000
CCc1nc(-c2cccc(NS(=O)(=O)c3ccccc3)c2)c(-c2ccnc(Nc3ccc(N4CCOCC4)c(F)c3)n2)s1 [Example 4]	> 1000
CCc1nc(-c2cccc(NS(=O)(=O)c3ccccc3)c2)c(-c2ccnc(Nc3ccc(OC)c(N4CCN(CCS(C)(=O)=O)CC4)c3)n2)s1 [Example 5, N-[3-(2-Ethyl-5-{2-[(4-(methyloxy)-3-{4-[2-(methylsulfonyl)ethyl]-1-piperazinyl}phenyl)amino]-4-pyrimidinyl}-1,3-thiazol-4-yl)phenyl]benzenesulfonamide]	100 to 1000
CC(=O)N1CCc2cc(Nc3nccc(-c4sc(C(C)C)nc4-c4cccc(NS(=O)(=O)c5ccccc5)c4)n3)ccc21 [Example 71]	> 1000
CC(C)c1nc(-c2cccc(NS(=O)(=O)c3ccccc3)c2)c(-c2ccnc(Nc3ccc(CC4CCN(CCS(C)(=O)=O)CC4)c(F)c3)n2)s1 [Example 72]	> 1000
CC(C)c1nc(-c2cccc(NS(=O)(=O)c3ccccc3)c2)c(-c2ccnc(Nc3ccc(F)c(N4CCN(CCS(C)(=O)=O)CC4)c3)n2)s1 [Example 73]	> 1000
CC(C)c1nc(-c2cccc(NS(=O)(=O)c3ccccc3)c2)c(-c2ccnc(Nc3ccc(N4CCN(CCS(C)(=O)=O)CC4)c(F)c3F)n2)s1 [Example 74]	> 1000
CC(C)c1nc(-c2cccc(NS(=O)(=O)c3c(F)cccc3F)c2)c(-c2ccnc(Nc3ccc(N4CCN(C(C)C)CC4)cc3O)n2)s1 [Example 78]	> 1000
COc1cc(N2CCN(CCF)CC2)ccc1Nc1nccc(-c2sc(C(C)C)nc2-c2cccc(NS(=O)(=O)c3c(F)cccc3F)c2)n1 [Example 79]	> 1000
CC(C)c1nc(-c2cccc(NS(=O)(=O)c3c(F)cccc3F)c2)c(-c2ccnc(Nc3ccc(N4CCN(CCO)CC4)nc3)n2)s1 [Example 80]	> 1000
CC(C)c1nc(-c2cccc(NS(=O)(=O)c3c(F)cccc3F)c2)c(-c2ccnc(Nc3cccc(N4CCN(C)CC4)c3)n2)s1 [Example 81]	> 1000
CC(C)c1nc(-c2cccc(NS(=O)(=O)c3c(F)cccc3F)c2)c(-c2ccnc(Nc3ccc(N4CCCNCC4)nc3)n2)s1 [Example 82]	> 1000
CC(C)c1nc(-c2cc(F)cc(NS(=O)(=O)c3ccc(F)cc3)c2)c(-c2ccnc(Nc3ccc(N4CCOCC4)c(F)c3)n2)s1 [Example 83]	> 1000
CC(C)c1nc(-c2cc(F)cc(NS(=O)(=O)c3c(F)cccc3F)c2)c(-c2ccnc(Nc3ccc(N4CCOCC4)nc3)n2)s1 [Example 84]	> 1000
CC(C)c1nc(-c2cccc(NS(=O)(=O)c3c(F)cccc3F)c2)c(-c2ccnc(Nc3cc(F)c(N4CCN(CCS(C)(=O)=O)CC4)cc3F)n2)s1 [Example 87]	> 1000
CC(C)c1nc(-c2cccc(NS(=O)(=O)c3c(F)cccc3F)c2)c(-c2ccnc(Nc3ccc(N4CCCN(CCS(C)(=O)=O)CC4)nc3)n2)s1 [Example 88]	> 1000
CC(C)c1nc(-c2cccc(NS(=O)(=O)c3c(F)cccc3F)c2)c(-c2ccnc(Nc3ccc(N4CC[C@@H](O)C4)nc3)n2)s1 [Example 89]	> 1000
Cc1cc(N2CCC(N3CCCCC3)CC2)ccc1Nc1nccc(-c2sc(C(C)C)nc2-c2cccc(NS(=O)(=O)c3c(F)cccc3F)c2)n1 [Example 91]	> 1000
CC(C)c1nc(-c2cccc(NS(=O)(=O)c3ccccc3)c2)c(-c2ccnc(Nc3ccc(N4CCOCC4)cn3)n2)s1 [Example 92]	> 1000
C=C(C)c1nc(-c2cccc(NS(=O)(=O)c3c(F)cccc3F)c2)c(-c2ccnc(Nc3ccc(N4CCN(CCF)CC4)c(F)c3)n2)s1 [Example 93]	> 1000
CC(C)c1nc(-c2ccc(F)c(NS(=O)(=O)c3c(F)cccc3F)c2)c(-c2ccnc(Nc3ccc(N4CCN(CCS(C)(=O)=O)CC4)c(F)c3)n2)s1 [Example 95]	> 1000
CC(=O)N1CCN(c2ccc(Nc3nccc(-c4sc(C(C)C)nc4-c4cccc(NS(=O)(=O)c5cc(F)ccc5F)c4)n3)cn2)CC1 [Example 96]	> 1000
